Test results published in PubChem BioAssay AID1963979 (Molecular Pharmacology Branch, DTP, NCI, 2024).

Tested on: 361931-004-R-J1-PDC multicell spheroid viability
Assay: Anticancer human tumor 361931-004-R-J1-PDC patient-derived colon adenocarcinoma cell line growth inhibition [PI3K]
Details: for IC50: curve of first compound; for viability, T/C: stronger effect = lower value
In short: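 Stroma-containing spheroids: tumor line, pooled-donor HUVEC, hMSC. Treatments: targeted agents with PI3K inhibitors. Dosing: clinically relevant, half-log spacing, 10 microM ceiling without known Cmax. Read-out: cell viability.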
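Note: spheroids exposed to agents for seven days before readout.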

Compound `CCN1CCN(Cc2ccc(Nc3ncc(F)c(-c4cc(F)c5nc(C)n(C(C)C)c5c4)n3)nc2)CC1` + CC(Nc1ncnc2nc[nH]c12)c1cc2cccc(Cl)c2c(=O)n1-c1ccccc1 has an IC50 (second compound 0.0316 µM) greater than 1 µM, an IC50 (second compound 0.1 µM) greater than 1 µM and an IC50 (second compound 0.316 µM) greater than 1 µM. The IC50 (second compound 1 µM) was greater than 1 µM, the IC50 (second compound 3.16 µM) was greater than 1 µM and the IC50 (second compound 10 µM) was greater than 1 µM. The viability, T/C (second compound 0.0316 µM, first compound 0.00316 µM) was 106%, the viability, T/C (second compound 0.0316 µM, first compound 0.01 µM) was 103% and the viability, T/C (second compound 0.0316 µM, first compound 0.0316 µM) was 103%. It also gave a viability, T/C (second compound 0.0316 µM, first compound 0.1 µM) of 98.8%, a viability, T/C (second compound 0.0316 µM, first compound 0.316 µM) of 109% and a viability, T/C (second compound 0.0316 µM, first compound 1 µM) of 105%. The viability, T/C (second compound 0.1 µM, first compound 0.00316 µM) was 105%, the viability, T/C (second compound 0.1 µM, first compound 0.01 µM) was 105% and the viability, T/C (second compound 0.1 µM, first compound 0.0316 µM) was 103%. The viability, T/C (second compound 0.1 µM, first compound 0.1 µM) was 97.6%, the viability, T/C (second compound 0.1 µM, first compound 0.316 µM) was 109% and the viability, T/C (second compound 0.1 µM, first compound 1 µM) was 100%. The viability, T/C (second compound 0.316 µM, first compound 0.00316 µM) was 101%, the viability, T/C (second compound 0.316 µM, first compound 0.01 µM) was 112% and the viability, T/C (second compound 0.316 µM, first compound 0.0316 µM) was 102%. For the same compound, the viability, T/C (second compound 0.316 µM, first compound 0.1 µM) was 110%, the viability, T/C (second compound 0.316 µM, first compound 0.316 µM) was 106% and the viability, T/C (second compound 0.316 µM, first compound 1 µM) was 91.9%. For the same compound, the viability, T/C (second compound 1 µM, first compound 0.00316 µM) was 105%, the viability, T/C (second compound 1 µM, first compound 0.01 µM) was 101% and the viability, T/C (second compound 1 µM, first compound 0.0316 µM) was 102%. For the same compound, the viability, T/C (second compound 1 µM, first compound 0.1 µM) was 104%, the viability, T/C (second compound 1 µM, first compound 0.316 µM) was 108% and the viability, T/C (second compound 1 µM, first compound 1 µM) was 93%. It also gave a viability, T/C (second compound 3.16 µM, first compound 0.00316 µM) of 109%, a viability, T/C (second compound 3.16 µM, first compound 0.01 µM) of 107% and a viability, T/C (second compound 3.16 µM, first compound 0.0316 µM) of 101%. The viability, T/C (second compound 3.16 µM, first compound 0.1 µM) was 104%, the viability, T/C (second compound 3.16 µM, first compound 0.316 µM) was 100% and the viability, T/C (second compound 3.16 µM, first compound 1 µM) was 81.8%. It also gave a viability, T/C (second compound 10 µM, first compound 0.00316 µM) of 105%, a viability, T/C (second compound 10 µM, first compound 0.01 µM) of 102% and a viability, T/C (second compound 10 µM, first compound 0.0316 µM) of 106%. For the same compound, the viability, T/C (second compound 10 µM, first compound 0.1 µM) was 96.5%, the viability, T/C (second compound 10 µM, first compound 0.316 µM) was 89.5% and the viability, T/C (second compound 10 µM, first compound 1 µM) was 69%.
